Experimental data published in patent US9546164B2 (GENENTECH, INC., priority 2013, dated 2017).
Counter-ions that a name gives are not always drawn. Like-named read-outs stand apart in the source and are kept apart here.

Target: hNav1.7 (Homo sapiens (Human), UniProt Q15858)
Assay: Tritiated sulfonamide competitive binding to membranes from cells expressing hNav1.7 and the β1 subunit;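 further: Filter-bound radioactivity counted by liquid scintillation, nonspecific binding defined with excess unlabelled ligand, IC50 fitted to percent inhibition of specific binding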
[1] = read-out: Ligand Binding Assay, 100 pM [3H]compound, membranes with hNav1.7 and β1 subunit, 18 h, room temperature
[2] = read-out: Ligand Binding Assay, 100 pM [3H]compound, membranes with hNav1.7 and β1 subunit, 18 h, room temperature, trifluoroacetic acid salt

Sequence of hNav1.7 (Q15858 other isoform, or with tags, fused parts or gaps): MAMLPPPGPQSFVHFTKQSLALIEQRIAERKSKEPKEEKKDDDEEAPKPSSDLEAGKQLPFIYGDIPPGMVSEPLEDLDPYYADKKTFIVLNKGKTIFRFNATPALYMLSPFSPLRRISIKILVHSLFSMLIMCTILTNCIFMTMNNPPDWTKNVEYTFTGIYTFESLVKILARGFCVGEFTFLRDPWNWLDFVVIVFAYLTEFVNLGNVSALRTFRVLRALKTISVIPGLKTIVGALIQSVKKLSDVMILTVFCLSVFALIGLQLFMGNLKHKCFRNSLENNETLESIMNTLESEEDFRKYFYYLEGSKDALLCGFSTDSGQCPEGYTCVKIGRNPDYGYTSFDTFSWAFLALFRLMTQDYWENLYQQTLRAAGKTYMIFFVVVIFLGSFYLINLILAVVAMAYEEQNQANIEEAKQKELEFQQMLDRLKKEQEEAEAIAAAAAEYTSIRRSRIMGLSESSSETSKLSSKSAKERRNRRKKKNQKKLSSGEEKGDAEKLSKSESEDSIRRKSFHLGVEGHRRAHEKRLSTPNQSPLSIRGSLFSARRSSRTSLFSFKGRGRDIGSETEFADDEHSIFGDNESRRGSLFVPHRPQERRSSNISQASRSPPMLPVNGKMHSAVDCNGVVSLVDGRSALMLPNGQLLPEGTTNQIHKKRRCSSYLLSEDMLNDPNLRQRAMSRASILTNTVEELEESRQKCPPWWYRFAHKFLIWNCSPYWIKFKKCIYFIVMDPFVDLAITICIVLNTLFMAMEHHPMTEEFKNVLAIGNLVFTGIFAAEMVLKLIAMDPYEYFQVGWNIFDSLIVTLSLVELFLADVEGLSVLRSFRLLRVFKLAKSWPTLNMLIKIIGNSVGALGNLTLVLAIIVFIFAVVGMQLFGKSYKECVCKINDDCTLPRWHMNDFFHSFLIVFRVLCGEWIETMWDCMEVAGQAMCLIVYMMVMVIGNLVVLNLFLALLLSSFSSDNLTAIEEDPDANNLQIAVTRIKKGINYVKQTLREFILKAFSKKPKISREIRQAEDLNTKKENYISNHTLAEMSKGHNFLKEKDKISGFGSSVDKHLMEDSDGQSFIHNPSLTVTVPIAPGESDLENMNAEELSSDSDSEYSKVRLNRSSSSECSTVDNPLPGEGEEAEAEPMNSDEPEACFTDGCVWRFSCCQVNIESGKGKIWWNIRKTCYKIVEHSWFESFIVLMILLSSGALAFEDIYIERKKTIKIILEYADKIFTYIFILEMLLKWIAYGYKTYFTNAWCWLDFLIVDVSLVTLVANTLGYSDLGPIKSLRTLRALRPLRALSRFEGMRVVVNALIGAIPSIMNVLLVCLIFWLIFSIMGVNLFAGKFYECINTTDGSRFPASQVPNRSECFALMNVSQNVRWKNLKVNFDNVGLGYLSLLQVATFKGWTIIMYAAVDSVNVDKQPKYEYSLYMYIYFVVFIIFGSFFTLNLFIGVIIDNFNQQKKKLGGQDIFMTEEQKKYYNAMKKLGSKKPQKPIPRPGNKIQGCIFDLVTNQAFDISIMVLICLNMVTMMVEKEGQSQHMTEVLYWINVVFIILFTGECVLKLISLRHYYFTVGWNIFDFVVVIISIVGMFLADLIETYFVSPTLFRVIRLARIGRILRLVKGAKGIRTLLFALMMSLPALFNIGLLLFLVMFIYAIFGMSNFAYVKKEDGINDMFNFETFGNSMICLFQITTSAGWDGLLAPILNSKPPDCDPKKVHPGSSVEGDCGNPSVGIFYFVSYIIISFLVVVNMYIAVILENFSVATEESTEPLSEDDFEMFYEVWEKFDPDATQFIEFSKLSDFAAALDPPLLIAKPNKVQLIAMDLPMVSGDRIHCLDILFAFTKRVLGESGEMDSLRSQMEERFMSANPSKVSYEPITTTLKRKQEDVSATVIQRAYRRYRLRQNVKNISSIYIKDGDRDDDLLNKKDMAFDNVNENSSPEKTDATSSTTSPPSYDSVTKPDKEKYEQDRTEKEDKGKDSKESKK
Sequence of hNav1.7 (Q07699 19-218 partner): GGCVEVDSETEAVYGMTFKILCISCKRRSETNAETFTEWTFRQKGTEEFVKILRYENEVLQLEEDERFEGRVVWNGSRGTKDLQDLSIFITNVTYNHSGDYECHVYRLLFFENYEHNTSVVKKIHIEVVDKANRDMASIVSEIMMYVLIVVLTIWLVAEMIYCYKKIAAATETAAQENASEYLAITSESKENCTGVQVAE
Method: Tritiated Sulfonamide Binding to Membranes
Preparation of membranes containing recombinantly expressed sodium channels: Frozen recombinant cell pellets were thawed on ice and diluted to 4 times the cell pellet weight with ice cold 50 mM TrisHCl, pH 7.4 buffer. The cell suspensions were homogenized on ice using a motorized glass douncehomogeniser. Homogenates were further diluted 8.4 times with ice cold 50 mM TrisHCl, pH 7.4 buffer and then centrifuged at 200×g at 4° C. for 15 min. The supersatants were collected and centrifuged at 10000×g at 4° C. for 50 min. The pellets were then re-suspended in 100 mMNaCl, 20 mM TrisHCl, pH. 7.4 buffer containing 1% v/v protease inhibitors (Calbiochem) and re-homogenized on ice. The homogenized membranes were then processed through a syringe equipped with a 26 gauge needle. Protein concentrations were determined by Bradford Assay and the membranes were stored at −80° C.
Radioligand Binding Studies: Saturation experiments. A representative compound of formula (I) having a methyl group was tritiated. Three tritiums were incorporated in place of methyl hydrogens to generate [^3H]compound. Binding of this radioligand was preformed in 5 mL borosilicate glass test tubes at room temperature. Binding was initiated by adding membranes to increasing concentrations of [^3H]compound in 100 mM NaCl, 20 mM TrisHCl, pH 7.4 buffer containing 0.01% w/v bovine serum albumin (BSA) for 18 h. Non-specific binding was determined in the presence of 1 μM unlabelled compound. After 18 h, the reactants were filtered through GF/C glass fiber filters presoaked in 0.5% w/v polyethylene imine. Filters were washed with 15 mL ice cold 100 mM NaCl, 20 mM TrisHCl, pH7.4 buffer containing 0.25% BSA to separate bound from free ligand. [^3H]compound bound to filters was quantified by liquid scintillation counting.
Competitive binding experiments: Binding reactions were preformed its 96-well polypropylene plates at room temperature for 18 h. In 360 μL, membranes were incubated with 100 pM [^3H]compound and increasing concentrations of Test Compound. Non-specific binding was defined in the presence of 1 μM unlabelled compound. Reactions were transferred and filtered through 96-well glass fiber/C filter plates presoaked with 0.5% polyethylene imine. The filtered reactions were washed 5 times with 200 μL ice cold butter containing 0.25% BSA. Bound radioactivity was determined by liquid scintillation counting.
Data Analysis: For saturation experiments, non-specific binding was subtracted from total binding to provide specific binding and these values were recalculated in terms of pmol ligand bound per mg protein. Saturation curves were constructed and dissociation constants were calculated using the single site ligand binding model: Beq=(Bmax*X)/(X+KD), where Beq is the amount of ligand bound at equilibrium, Bmax is the maximum receptor density, Kd is the dissociation constant for the ligand, and X is the tree ligand concentration. For competition studies percent inhibition was determined and IC50 values were calculated using a 4 parameter logistic model (% inhibition=(A+((B−A)/(1+((x/C)^D)))) using XLfit, where A and B are the maximal and minimum inhibition respectively, C is the IC50 concentration and D is the (Hill) slope.

| Compound | IC50 [1] | IC50 | also measured |
| --- | --- | --- | --- |
| CCS(=O)(=O)NC(=O)c1cc(C2CC2)c(OCC2(C)CN(c3ncc(Cl)cc3F)C2)cc1F [Example 484, 4-((1-(5-chloro-3-fluoropyridin-2-yl)-3-methylazetidin-3-yl)methoxy)-5-cyclopropyl-N-(ethylsulfonyl)-2-fluorobenzamide] | 9.2 nM | – | – |
| CC1(COc2cc(F)c(C(=O)NS(=O)(=O)C3CC3)cc2C2CC2)CN(c2cc(Cl)c(C(F)(F)F)cn2)C1 [Example 486, 4-((1-(4-chloro-5-(trifluoromethyl)pyridin-2-yl)-3-methylazetidin-3-yl)methoxy)-5-cyclopropyl-N-(cyclopropylsulfonyl)-2-fluorobenzamide, trifluoroacetic acid salt] | 5.6 nM | – | – |
| O=C(NS(=O)(=O)C1CC1)c1cc(C2CC2)c(O[C@@H]2CCCN(c3ccccn3)C2)cc1F [Example 492, (R)-5-cyclopropyl-N-(cyclopropylsulfonyl)-2-fluoro-4-((1-(pyridin-2-yl)piperidin-3-yl)oxy)benzamide] | 93.8 nM | – | – |
| O=C(NS(=O)(=O)N1CCC1)c1cc(C2CC2)c(O[C@@H]2CCCN(c3ccccn3)C2)cc1F [Example 493, (R)—N-(azetidin-1-ylsulfonyl)-5-cyclopropyl-2-fluoro-4-((1-(pyridin-2-yl)piperidin-3-yl)oxy)benzamide] | 243 nM | – | – |
| O=C(NS(=O)(=O)C1CC1)c1cc(C2CC2)c(O[C@@H]2CCCN(c3ccc(F)cn3)C2)cc1F [Example 494, (R)-5-cyclopropyl-N-(cyclopropylsulfonyl)-2-fluoro-4-((1-(5-fluoropyridin-2-yl)piperidin-3-yl)oxy)benzamide, trifluoroacetic acid salt] | 52.7 nM | – | – |
| O=C(NS(=O)(=O)C1CC1)c1cc(C2CC2)c(CN2CCC(Oc3ccc(C(F)(F)F)cc3)CC2)cc1F [Example 500, 5-cyclopropyl-N-(cyclopropylsulfonyl)-2-fluoro-4-((4-(4-(trifluoromethyl)phenoxy)piperidin-1-yl)methyl)benzamide] | – | 7.8 nM | – |
| O=C(NS(=O)(=O)C1CC1)c1cc(C2CC2)c(CN2CCC(Oc3cccc(C(F)(F)F)c3)CC2)cc1F [Example 502, trifluoroacetic acid salt] | 6.8 nM | – | – |
| O=C(NS(=O)(=O)C1CC1)c1cc(C2CC2)c(CN2CCC(Oc3ccc(F)cc3Cl)CC2)cc1F [Example 506, trifluoroacetic acid salt] | – | – | IC50 [2]: 14.3 nM |
| O=C(NS(=O)(=O)C1CC1)c1cc(C2CC2)c(CN2CCC(Oc3ccc(F)cc3Cl)CC2)cc1F [Example 507, trifluoroacetic acid salt] | – | – | IC50 [2]: 81.7 nM |
| CS(=O)(=O)NC(=O)c1cc(C2CC2)c(CN2CCC(Oc3ccc(Cl)c(Cl)c3)CC2)cc1F [Example 509, 5-cyclopropyl-4-((4-(3,4-dichlorophenoxy)piperidin-1-yl)methyl)-2-fluoro-N-(methylsulfonyl)benzamide, trifluoroacetic acid salt)] | – | 13.1 nM | – |
| O=C(NS(=O)(=O)C1CC1)c1cc(C2CC2)c(CN2CCC(Oc3ccc(Cl)c(Cl)c3)CC2)cc1F [Example 510, 5-cyclopropyl-N-(cyclopropylsulfonyl)-4-((4-(3,4-dichlorophenoxy)piperidin-1-yl)methyl)-2-fluorobenzamide, trifluoroacetic acid salt] | – | 9.1 nM | – |
| O=C(NS(=O)(=O)C1CC1)c1cc(C2CC2)c(CN2CCC(OCc3cc(Cl)cc(Cl)c3)CC2)cc1F [Example 512, 5-cyclopropyl-N-(cyclopropylsulfonyl)-4-((4-((3,5-dichlorobenzyl)oxy)piperidin-1-yl)methyl)-2-fluorobenzamide, trifluoroacetic acid salt] | – | 16.7 nM | – |
| CS(=O)(=O)NC(=O)c1cc(C2CC2)c(CN2CCC(CF)(c3ccc(F)cc3)CC2)cc1F [Example 513, 5-cyclopropyl-2-fluoro-4-((4-(fluoromethyl)-4-(4-fluorophenyl)piperidin-1-yl)methyl)-N-(methylsulfonyl)benzamide, trifluoroacetic acid salt] | – | 69.8 nM | – |
| O=C(NS(=O)(=O)C1CC1)c1cc(C2CC2)c(CN2CCC(CF)(c3ccc(F)cc3)CC2)cc1F [Example 514, 5-cyclopropyl-N-(cyclopropylsulfonyl)-2-fluoro-4-((4-(fluoromethyl)-4-(4-fluorophenyl)piperidin-1-yl)methyl)benzamide, trifluoroacetic acid salt] | – | 24.4 nM | – |

Now from value to compound, other results behind:

| IC50 [1] | IC50 | Compound | also measured |
| --- | --- | --- | --- |
| 4.5 nM | – | CC1(COc2cc(F)c(C(=O)NS(=O)(=O)C3CC3)cc2C2CC2)CN(c2ccc(Cl)c(C(F)(F)F)n2)C1 [Example 485, 4-((1-(5-chloro-6-(trifluoromethyl)pyridin-2-yl)-3-methylazetidin-3-yl)methoxy)-5-cyclopropyl-N-(cyclopropylsulfonyl)-2-fluorobenzamide] | – |
| 13.5 nM | – | CC1(COc2cc(F)c(C(=O)NS(=O)(=O)C3CC3)cc2C2CC2)CN(c2cc(Cl)ncc2C(F)(F)F)C1 [Example 487, 4-((1-(2-chloro-5-(trifluoromethyl)pyridin-4-yl)-3-methylazetidin-3-yl)methoxy)-5-cyclopropyl-N-(cyclopropylsulfonyl)-2-fluorobenzamide, trifluoroacetic acid salt] | – |
| 9.2 nM | – | CC1(COc2cc(F)c(C(=O)NS(=O)(=O)C3CC3)cc2C2CC2)CN(c2ccc(C(F)(F)F)cn2)C1 [Example 488, 5-cyclopropyl-N-(cyclopropylsulfonyl)-2-fluoro-4-((3-methyl-1-(5-(trifluoromethyl)pyridin-2-yl)azetidin-2-3-yl)methoxy)benzamide, trifluoroacetic acid salt] | – |
| 103 nM | – | CC1(COc2cc(F)c(C(=O)NS(=O)(=O)C3CC3)cc2C2CC2)CN(c2ccncc2C(F)(F)F)C1 [Example 489, 5-cyclopropyl-N-(cyclopropylsulfonyl)-2-fluoro-4-((3-methyl-1-(3-(trifluoromethyl)pyridin-4-yl)azetidin-3-yl)methoxy)benzamide, trifluoroacetic acid salt] | – |
| 42.3 nM | – | CS(=O)(=O)NC(=O)c1cc(C2CC2)c(O[C@@H]2CCCN(c3ccc(C(F)(F)F)cn3)C2)cc1F [Example 490, (R)-5-cyclopropyl-2-fluoro-N-(methylsulfonyl)-4-((1-(5-trifluoromethyl)pyridin-2-yl)piperidin-3-yl)oxy)benzamide, trifluoroacetic acid salt] | – |
| 28.3 nM | – | O=C(NS(=O)(=O)C1CC1)c1cc(C2CC2)c(O[C@@H]2CCCN(c3ccc(C(F)(F)F)cn3)C2)cc1F [Example 491, (R)-5-cyclopropyl-N-(cyclopropylsulfonyl)-2-fluoro-4-((1-(5-(trifluoromethyl)pyridin-2-yl)piperidin-3-yl)oxy)benzamide, trifluoroacetic acid salt] | – |
| – | 14.3 nM | CS(=O)(=O)NC(=O)c1cc(C2CC2)c(CN2CCC(Oc3ccccc3C(F)(F)F)CC2)cc1F [Example 497, 5-cyclopropyl-2-fluoro-N-(methylsulfonyl)-4-((4-(2-(trifluoromethyl)phenoxy)piperidin-1-yl)methyl)benzamide] | – |
| – | 87.4 nM | O=C(NS(=O)(=O)C1CC1)c1cc(C2CC2)c(CN2CCC(Oc3ccccc3C(F)(F)F)CC2)cc1F [Example 498, 5-cyclopropyl-N-(cyclopropylsulfonyl)-2-fluoro-4-((4-(2-(trifluoromethyl)phenoxy)piperidin-1-yl)methyl)benzamide] | – |
| – | 13.6 nM | CS(=O)(=O)NC(=O)c1cc(C2CC2)c(CN2CCC(Oc3ccc(C(F)(F)F)cc3)CC2)cc1F [Example 499, 5-cyclopropyl-2-fluoro-N-(methylsulfonyl)-4-((4-(4-(trifluoromethyl)phenoxy)piperidin-1-yl)methyl)benzamide] | – |
| – | 13.4 nM | CS(=O)(=O)NC(=O)c1cc(C2CC2)c(CN2CCC(Oc3cccc(C(F)(F)F)c3)CC2)cc1F [Example 501, 5-cyclopropyl-2-fluoro-N-(methylsulfonyl)-4-((4-(3-(trifluoromethyl)phenoxy)piperidin-1-yl)methyl)benzamide, trifluoroacetic acid salt] | – |
| – | 44 nM | O=C(NS(=O)(=O)C1CC1)c1cc(C2CC2)c(CN2CCC(Oc3ccc(F)cc3)CC2)cc1F [Example 508, 5-cyclopropyl-N-(cyclopropylsulfonyl)-2-fluoro-4-((4-(4-fluorophenoxy)piperidin-1-yl)methyl)benzamide, trifluoroacetic acid salt] | – |
| – | 23.5 nM | CS(=O)(=O)NC(=O)c1cc(C2CC2)c(CN2CCC(OCc3cc(Cl)cc(Cl)c3)CC2)cc1F [Example 511, 5-cyclopropyl-4-((4-((3,5-dichlorobenzyl)oxy)piperidin-1-yl)methyl)-2-fluoro-N-(methylsulfonyl)benzamide, trifluoroacetic acid salt] | – |
| – | 15 nM | CS(=O)(=O)NC(=O)c1cc(C2CC2)c(CN2CCN(Cc3cc(Cl)cc(Cl)c3)CC2)cc1F [Example 517, 5-cyclopropyl-4-((4-(3,5-dichlorobenzyl)piperazin-1-yl)methyl)-2-fluoro-N-(methylsulfonyl)benzamide, trifluoroacetic acid salt] | – |
| – | 8.2 nM | O=C(NS(=O)(=O)C1CC1)c1cc(C2CC2)c(CN2CCN(Cc3cc(Cl)cc(Cl)c3)CC2)cc1F [Example 518, 5-cyclopropyl-N-(cyclopropylsulfonyl)-4-((4-(3,5-dichlorobenzyl)piperazin-1-yl)methyl)-2-fluorobenzamide, trifluoroacetic acid salt] | – |
| – | 8.1 nM | CS(=O)(=O)NC(=O)c1cc(C2CC2)c(CN2CCC(Oc3ccc(Cl)c(C(F)(F)F)c3)CC2)cc1F [Example 519, 4-((4-(4-chloro-3-(trifluoromethyl)phenoxy)piperidin-1-yl)methyl)-5-cyclopropyl-2-fluoro-N-(methylsulfonyl)benzamide, trifluoroacetic acid salt] | – |
| – | 7.3 nM | O=C(NS(=O)(=O)C1CC1)c1cc(C2CC2)c(CN2CCC(Oc3ccc(Cl)c(C(F)(F)F)c3)CC2)cc1F [Example 520, 4-((4-(4-chloro-3-(trifluoromethyl)phenoxy)piperidin-1-yl)methyl)-5-cyclopropyl-N-(cyclopropylsulfonyl)-2-fluorobenzamide, trifluoroacetic acid salt] | – |
